This is an account of results in ChEMBL document CHEMBL5375981, “Enhanced Tumor Targeting and Penetration of Proteolysis-Targeting Chimeras through iRGD Peptide Conjugation: A Strategy for Precise Protein Degradation in Breast Cancer” (J Med Chem, 2023).

Series [1] can be described thus: Solubility in distilled water measured for 30 mins by ultraviolet spectrophotometry analysis. The class given is physicochemical.
Series [2] is described as follows: Stability of compound in PBS containing 5% serum at 50 uM measured after 72 hrs by LC-MS analysis. The settings on record: read-out: Stability. The class given is physicochemical, cell-free.
For series [3], the target named is Bromodomain-containing protein 4 (Homo sapiens) (UniProt O60885). Nature of the series: Induction of BRD4 degradation in human MDA-MB-231 cells harboring high integrin alphaVbeta3 expression at 0.11 uM incubated for 24 hrs by Western blot analysis. It is filed as cell-based. (In western blotting, separated proteins are transferred to a membrane and probed.)
Series [4] shares this target. The series can be described thus: Induction of BRD4 degradation in human MCF7 cells harboring low integrin alphaVbeta3 expression at 0.04 uM incubated for 24 hrs by Western blot analysis. It is filed as cell-based.
The target is the same in series [5]. Nature of the series: Induction of BRD4 degradation in human MCF7 cells harboring low integrin alphaVbeta3 expression at 0.11 uM incubated for 24 hrs by Western blot analysis relative to control. It is filed as cell-based.
For series [6] the target is unchanged. Nature of the series: Induction of BRD4 degradation in human L02 cells lacking integrin alphaVbeta3 expression at 0.33 uM incubated for 24 hrs by Western blot analysis relative to control. It is filed as cell-based.
The target is the same in series [7]. Nature of the series: Induction of BRD4 degradation in human MDA-MB-231 cells harboring high integrin alphaVbeta3 expression at 300 nM measured at 24 hrs by Western blot analysis. The class given is cell-based.
For series [8] the target is unchanged. Nature of the series: Induction of BRD4 degradation in human MCF7 cells harboring low integrin alphaVbeta3 expression at 300 nM measured at 16 hrs by Western blot analysis. The class given is cell-based.
Series [9] has the same target. The series can be described thus: Induction of BRD4 degradation in human MCF7 cells harboring low integrin alphaVbeta3 expression at 300 nM measured at 20 hrs by Western blot analysis relative to control. It is filed as cell-based.
For series [10] the target is unchanged. Nature of the series: Induction of BRD4 degradation in human L02 cells lacking integrin alphaVbeta3 expression at 300 nM measured at 24 hrs by Western blot analysis relative to control. It is filed as cell-based.
Series [11] has the same target. The series can be described thus: Induction of BRD4 degradation in human MCF7 cells harboring low integrin alphaVbeta3 expression at 300 nM incubated for 12 hrs by immunofluorescence staining based confocal microscopic analysis. The class given is cell-based.
For series [12] the target is unchanged. Nature of the series: Induction of BRD4 degradation in human L02 cells lacking integrin alphaVbeta3 expression at 300 nM incubated for 12 hrs by immunofluorescence staining based confocal microscopic analysis. It is filed as cell-based.
Series [13] shares this target. Nature of the series: Induction of BRD4 degradation in human MDA-MB-231 cells harboring high integrin alphaVbeta3 expression at 1 uM incubated for 12 hrs by immunofluorescence staining based confocal microscopic analysis. The class given is cell-based.
Series [14] has as its system MDA-MB-231. Nature of the series: Antiproliferative activity against human MDA-MB-231 cells harboring high integrin alphaVbeta3 expression assessed as inhibition of cell growth incubated for 72 hrs by CCK-8 assay. The class given is functional, cell-based. The settings on record: MDA-MB-231, 72 h. (Formazan colour is commonly taken as a measure of viable cells.)
Series [15] deals with MCF7. Nature of the series: Antiproliferative activity against human MCF7 cells harboring low integrin alphaVbeta3 expression assessed as inhibition of cell growth incubated for 72 hrs by CCK-8 assay. Conditions: MCF7, 72 h. It is filed as functional, cell-based.
In series [16] the test system is L02. Nature of the series: Antiproliferative activity against human L02 cells harboring minimal integrin alphaVbeta3 expression assessed as inhibition of cell growth incubated for 72 hrs by CCK-8 assay. It is filed as functional, cell-based. Conditions: L02, 72 h.
In series [17] the test system is MCF7. The series can be described thus: Antimigratory activity against human MCF7 cells harboring low integrin alphaVbeta3 expression assessed as inhibition of cell migration at 200 nM incubated for 48 hrs by crystal violet staining based transwell assay. The class given is functional.
Series [18] deals with L02. The series can be described thus: Antimigratory activity against human L02 cells lacking integrin alphaVbeta3 expression assessed as inhibition of cell migration at 200 nM incubated for 48 hrs by crystal violet staining based transwell assay. The class given is functional.
Series [19] deals with MDA-MB-231. The series can be described thus: Antitumor activity against human MDA-MB-231 cells xenografted in BALB/C nude mouse assessed as tumor growth inhibition at 5 uM, iv administered every other day and measured after 21 days by vernier caliper method relative to control. The class given is functional. Conditions: MDA-MB-231, 504 h, time 21 day, read-out: TGI.
The nature of series [20]: Toxicity in BALB/C mouse xenografted with human MDA-MB-231 cells assessed as weight loss at 5 uM, iv administered for 21 days and measured every 3 days. The class given is organism-based. The settings on record: in vivo, 504 h, time 21 day. For orientation: A xenograft is tissue or cells of one species grown in another, often human tumour cells in immunodeficient mice.

Series [21] in a line: Toxicity in BALB/C mouse xenografted with human MDA-MB-231 cells assessed as adverse reactions at 5 uM, iv administered for 21 days and measured every 3 days. Conditions: in vivo, 504 h, time 21 day. It is filed as organism-based.
A short description of series [22]: Toxicity in BALB/C mouse xenografted with human MDA-MB-231 cells assessed as effect on heart weight at 5 uM, iv administered every other day for 21 days. It is filed as organism-based. The settings on record: in vivo, 504 h, time 21 day.
Series [23] is described as follows: Toxicity in BALB/C mouse xenografted with human MDA-MB-231 cells assessed as effect on liver weight at 5 uM, iv administered every other day for 21 days. The class given is organism-based. The settings on record: in vivo, 504 h, time 21 day.
Series [24] is described as follows: Toxicity in BALB/C mouse xenografted with human MDA-MB-231 cells assessed as effect on spleen weight at 5 uM, iv administered every other day for 21 days. The class given is organism-based. The settings on record: in vivo, 504 h, time 21 day.
A short description of series [25]: Toxicity in BALB/C mouse xenografted with human MDA-MB-231 cells assessed as effect on lung weight at 5 uM, iv administered every other day for 21 days. The settings on record: in vivo, 504 h, time 21 day. It is filed as organism-based.
Series [26] is described as follows: Toxicity in BALB/C mouse xenografted with human MDA-MB-231 cells assessed as effect on kidney weight at 5 uM, iv administered every other day for 21 days. The class given is organism-based. Conditions: in vivo, 504 h, time 21 day.
The nature of series [27]: Toxicity in BALB/C mouse xenografted with human MDA-MB-231 cells assessed as lung damage at 5 uM, iv administered every other day for 21 days and measured 37 days post treatment by H and E staining based assay. It is filed as organism-based. Conditions: in vivo, 1392 h, time 58 day.
Series [28] has as its system MDA-MB-231. Nature of the series: Antitumor activity against human MDA-MB-231 cells xenografted in BALB/C nude mouse assessed as disruption of tumor blood vessel wall at 5 uM, iv administered every other day and measured after 21 days by H and E staining based assay. It is filed as functional, organism-based. The settings on record: time 21.0 day.
Series [29] is described as follows: Antitumor activity against patient-derived Breast cancer organoid assessed as inhibition of cell growth incubated for approximately 3 to 5 days by CCK-8 assay. The settings on record: Homo sapiens. The class given is functional, tissue-based.
A short description of series [30]: Drug release in PBS assessed as increase in (2S)-1-((R)-2-(tert-butyl)-17-((S)-4-(4-chlorophenyl)-2,3,9-trimethyl-6H-thieno[3,2-f][1,2,4]triazolo[4,3-a][1,4]diazepin-6-yl)-4,16-dioxo-6,9,12-trioxa-3,15-diazaheptadecanoyl)-4-hydroxy-N-((S)-1-(4-(4-methylthiazol-5-yl)phenyl)ethyl)pyrrolidine-2-carboxamide concentration at 50 uM in presence of GSH by LC-MS analysis. The class given is ADME. Conditions: buffer, TDE = time-dependent effect.

Series [31] has as its target Bromodomain-containing protein 4 (Homo sapiens) (UniProt O60885). Nature of the series: Induction of BRD4 degradation in human MCF7 cells harboring low integrin alphaVbeta3 expression at 0.01 to 1 uM incubated for 24 hrs by Western blot analysis. It is filed as cell-based. Conditions: dose 0.01-1 µM.
For series [32] the target is unchanged. Nature of the series: Induction of BRD4 degradation in human L02 cells lacking integrin alphaVbeta3 expression at 0.01 to 1 uM incubated for 24 hrs by Western blot analysis. It is filed as cell-based. The settings on record: dose 0.01-1 µM.
For series [33] the target is unchanged. The series can be described thus: Induction of BRD4 degradation in human MDA-MB-231 cells harboring high integrin alphaVbeta3 expression at 300 nM incubated for 16 to 20 hrs by Western blot analysis. It is filed as cell-based. Conditions: time 16-20 hrs.

≈ marks a conversion by molar mass, not a printed value. Calls of active or inactive are those of the source. The calls are words filed in the database; no cut-off is given here.

`Cc1ncsc1-c1ccc([C@H](C)NC(=O)[C@@H]2C[C@@H](OC(=O)CCC(=O)N[C@@H](Cc3c[nH]cn3)C(=O)N[C@@H](Cc3c[nH]cn3)C(=O)NCC(=O)N[C@@H](CCCNC(=N)N)C(=O)NCC(=O)N[C@@H](CC(=O)O)C(=O)O)CN2C(=O)[C@@H](NC(=O)COCCOCCOCCNC(=O)C[C@@H]2N=C(c3ccc(Cl)cc3)c3c(sc(C)c3C)-n3c(C)nnc32)C(C)(C)C)cc1`: the solubility at 0.5 h in [1] is over 10 mM. In addition, in series [2], the remaining at 72 h, 50 µM was 10.2%.
For `Cc1ncsc1-c1ccc([C@H](C)NC(=O)[C@@H]2C[C@@H](O)CN2C(=O)[C@@H](NC(=O)COCCOCCOCCNC(=O)C[C@@H]2N=C(c3ccc(Cl)cc3)c3c(sc(C)c3C)-n3c(C)nnc32)C(C)(C)C)cc1`, the outcome in [3], in series [4], in [7], in [8], in series [11] and in series [12] was Active. The outcome (in [13]; in the series on MCF7 [17]; with L02 [18]) was Active. In series [1], this compound returned a solubility at 0.5 h of 29.5 mM (≈ 30 mg/mL). The Activity in [5] is 100%; in series [6], 100%; in series [9] it was 100%; in series [10], 100%; in [20] it was “Non-Toxic”; in [21], “Non-Toxic”. Besides, the Activity result in series [22] is on record as “Non-Toxic”; in series [23], “Non-Toxic”; in series [24] it was “Non-Toxic”; in series [25] it was “Non-Toxic”; in [26] it was “Non-Toxic”; in series [27], “Toxic”. The IC50 in the series with MDA-MB-231 [14] is 90 nM; with MCF7 [15], 30 nM; in the series on L02 [16], 400 nM; in [29], 2100 nM. Also, the inhibition in vivo at 5 µM in the series on MDA-MB-231 [19] came out at 36.3%. The outcome with MDA-MB-231 [28] was inactive.
In the case of `Cc1ncsc1-c1ccc([C@H](C)NC(=O)[C@@H]2C[C@@H](OC(=O)OCCSSCCOC(=O)CCC(=O)N[C@@H](CCCNC(=N)N)C(=O)NCC(=O)N[C@@H](CC(=O)O)C(=O)O)CN2C(=O)[C@@H](NC(=O)COCCOCCOCCNC(=O)C[C@@H]2N=C(c3ccc(Cl)cc3)c3c(sc(C)c3C)-n3c(C)nnc32)C(C)(C)C)cc1`, the result in [3], in series [33] and in [13] was Active. For the same compound, in series [1], the solubility at 0.5 h is over 10 mM. The remaining at 72 h, 50 µM in [2] is 94.6%. Besides, the Drug metabolism entry in [30] is “Tde”. For the same compound, the outcome in [31], in series [32], in [11] and in series [12] was inactive. Further, the IC50 was 190 nM in the series with MDA-MB-231 [14], 190 nM in the series on MCF7 [15] and 980 nM with L02 [16].

In general, solubility refers to the dissolved amount per volume that the medium holds. A word on the IC50: it is the concentration needed to halve the response being measured.
